{"source": "patent US20200341000A1", "about": "“METHOD OF SCREENING COMPOUNDS FOR TREATING CNS DISORDERS” (SAGE THERAPEUTICS, INC., priority 2017, published 2020)", "key": {"[1]": {"test_system": "sIPSCs in DGGCs (mutant mice)", "experiment": "Decay time of sIPSCs in DGGCs of mutant mice", "assay_type": "cell-based", "conditions": "100 nM", "description": "The ability of 100 nM ALLO to modulate the decay time of sIPSCs was compared in DGGCs from WT and S940A mice as detailed in FIG. 2."}, "[2]": {"test_system": "phosphorylation of S443 (α4) and S408/9 (β3)", "experiment": "Phosphorylation of GABAAR subunits in brain after IP injection", "assay_type": "in vivo, mice", "conditions": "5 mg/kg IP, 30 min after treatment", "description": "C57/B16 mice injected with SGE-516 (5 mg/kg IP), or vehicle. 30 min after the treatment mice were sacrificed by microwave irradiation. SDS-soluble hippocampal extracts were then immunoblotted with pS443, α4, pS408/9, or β3 subunit antibodies."}, "[3]": {"test_system": "GABAA receptor α4 subunit S443 phosphorylation", "experiment": "Immunoblot of α4 S443 phosphorylation in hippocampal slices", "assay_type": "cell-based, mice", "conditions": "100 SGE-516 for 5 min", "description": "Treatment of hippocampal slices with SGE-516 increased the phosphorylation of S408/9 measured using pS408/9 antibodies. To produce antibodies specific for phosphorylated S443, rabbits were injected with a synthetic peptide corresponding to residues […] of the murine α4 subunit in which the serine residue corresponding to S443 was chemically phosphorylated; […]. Hippocampal slices were treated with vehicle (Con), or SGE-516 for 20 min. Slices were immunoblotted with pS408/9, β3, or actin antibodies. The ratio of pS408/9/β3 immunoreactivity was then normalized to control slices (100%=the line).\nAffinity purified pS443 was used to immunoblot varying concentrations of the immunizing phosphor-peptide (PP). pS443 was used to immunoblot extracts of hippocampal slices treated without preadsorption (0), preadsorbed with the dephosphorylated (DP), or phosphorylated antigen (PP). […] Moreover, the detection of this band was blocked by the phospho- but not the dephospho-antigen (FIG. 7B).\nHippocampal slices were treated with vehicle (Con) or 100 SGE-516 for 5 min and then immunoblotted with pS443 and α4 antibodies as indicated. pS443 immunoreactivity in hippocampal slices was increased by exposure to SGE-516, while total α4 levels were unaffected (FIG. 7C)."}}}
{"compound": "CC(=O)[C@H]1CC[C@H]2[C@@H]3CC[C@H]4C[C@H](O)CC[C@]4(C)[C@H]3CC[C@]12C", "note": "[ALLO, Allopregnanolone]", "values": [{"measurement": "decay time of sIPSCs", "setting": "[1]", "value": "did not increase"}]}
{"compound": "C[C@@]1(O)CC[C@H]2[C@H](CC[C@@H]3[C@@H]2CC[C@]2(C)[C@@H](C(=O)Cn4nccn4)CC[C@@H]32)C1", "note": "[SGE-516]", "values": [{"measurement": "phosphorylation of S443 and S408/9 in the brains", "setting": "[2]", "value": "increased"}, {"measurement": "pS443 immunoreactivity", "setting": "[3]", "value": "increased"}, {"measurement": "total α4 levels", "setting": "[3]", "value": "unaffected"}]}
